# Data published in patent publication US5444056A, “Aminoalkoxyphenyl derivatives, process for their preparation and compositions containing them” (Sanofi, priority 1989, dated 1995).
# Where a name gives a salt, the structure may show the parent alone.
# Tested on: contractile response to potassium-induced depolarization on isolated rat aorta
# Experiment: Calcium inhibitory properties: antagonism of contractile response to potassium-induced depolarization on isolated rat aorta
# Design: species or system rat (male Wistar)
# Conditions: percent of maximal contraction before incubation, 60 min
# Description: It is well established that the depolarization of a smooth muscle membrane by potassium makes the latter permeable to extracellular calcium and induces muscle contraction. Consequently, the measurement of inhibition of the contractile response to depolarization by potassium or the measurement of relaxation of the tonic contraction on potassium depolarization can provide an evaluation of the potency of a compound as an inhibitor of the membrane permeability to Ca^++ ions. The technique used is the following: The aorta is removed from male Wistar rats weighing about 300 g and cut into strips approximately 40 mm long and 3 mm wide. These fragments are placed in a 25 ml isolated organ bath containing modified Krebs-bicarbonate solution (112 mM NaCL; 5 mM KCl; 25 mM NaHCO3; 1 mM KH2 PO4; 1.2 mM MgSO4; 2.5 mM CaCl2; 11.5 mM glucose, made up to 1000 ml with distilled water) maintained at 37° C. and through which a stream of carbon dioxide is passed. The preparation is connected to a force microsensor and the contractile response is recorded after amplification on a recorder. A tension of 2g is applied to the preparation. This latter is maintained in the modified Krebs-bicarbonate solution for 60 minutes, and then contractions are induced by replacing the Krebsbi-carbonate solution by a Krebs-potassium solution (17 mM NaCl; 100 mM KCl; 25 mM NaHCO3; 1 mM KH2 PO4; 1.2 mM MgSO4; 2.5 mM CaCl2; 11.5 mM glucose; made up to 1000 ml with distilled water). When the contractile response of the preparation has become reproducible, a given amount of the compound of the invention is introduced into the bath. Sixty minutes later a new spasm is induced by potassium depolarization. The results obtained on the aorta under investigation are then expressed in percent of the maximal contractional effect before incubation with the test substance. As examples, the following results were obtained, the compounds of formula (1) being in the form of the free base, the hydrochloride, oxalate or fumarate.
SMILES,"% maximal contractional effect (10^-7 M, 0.1 µM)","% maximal contractional effect (10^-8 M, 0.01 µM)","% maximal contractional effect (10^-9 M, 0.001 µM)","% maximal contractional effect (10^-6 M, 1 µM)","% maximal contractional effect (10^-10 M, 0.0001 µM)"
"COc1cc(OC)c(C(C)C)c(S(=O)(=O)c2ccc(OCCCN(C)CCc3ccc(OC)c(OC)c3)cc2)c1.O=C(O)C(=O)O [Ex.6, 4-[-3(N-methyl N-3,4-dimethoxy-β-phenethylamino)propox]phenyl (2-isopropyl 3,5-dimethoxy phenyl) sulfone oxalate]","13,1%","63,4%","85,7%",–,–
"CCCCc1oc2ccc(NS(C)(=O)=O)cc2c1S(=O)(=O)c1ccc(OCCCN(C)CCc2ccc(OC)c(OC)c2)cc1 [Ex. 4, 3-{4-[3-(N-methyl N-3,4-dimethoxy-β-phenethylamino)propoxy]benzenesulfonyl} 2-n-butyl 5-methane sulfonamido benzofuran hydrogen oxalate]","92,7%",–,–,"49,9%",–
"CCCCc1oc2ccc(Cl)cc2c1S(=O)(=O)c1cc(Br)c(OCCCN(C)CCc2ccc(OC)c(OC)c2)c(Br)c1 [Ex. 7, 5-chloro 2-n-butyl 3-{4-[3-(N-methyl N-3,4-dimethoxy-β-phenethylamino)propoxy] 3,5-dibromobenzenesulfonyl}benzofuran hydrogen oxalate]","76,8%",–,–,"80,3%",–
"COc1ccc2[nH]c(C)c(Sc3ccc(OCCCN(C)CCc4ccc(OC)c(OC)c4)cc3)c2c1 [Ex. 9, 3-{4-[3-(N-methyl N-3,4-dimethoxy-β-phenethylamino)propoxy]phenylthio} 5-methoxy 2-methyl indole hydrogen oxalate]","70,4%","84,4%",88%,–,–
"CCN(CC)CCn1c(C(C)C)c(S(=O)(=O)c2ccc(OCCCN(C)CCc3ccc(OC)c(OC)c3)cc2)c2ccccc21 [Ex. 12, 3-{4-[3-(N-methyl N-3,4-dimethoxy-β-phenethylamino)propoxy]benzenesulfonyl} 1-diethylaminoethyl 2-isopropyl indole dioxalate]","74,9%","84,5%","90,4%",–,–
"COc1ccc(CCN(C)CCCOc2ccc(S(=O)(=O)c3c(C(C)C)n(C)c4cc(C)ccc34)cc2)cc1OC [Ex. 45, 1-methyl 2-isopropyl 3-{4-[3-(N-methyl N-3,4-dimethoxy-β-phenethylamino)propoxy]benzenesulfony} 6-methyl indole hydrogen oxalate]","15,7%","75,2%","83,2%",–,–
"CCCCN(CCCC)CCCOc1ccc(S(=O)(=O)c2c(C(C)C)n(C)c3cc(C)ccc23)cc1.O=C(O)C(=O)O [Ex. 46, 1-methyl 2-isopropyl 3-{4-[3-(di-n-butylamino)propoxy]benzenesulfonyl} 6-methyl indole hydrogen oxalate]","41,7%","67,2%","79,5%",–,–
"CCCCN(CCCC)CCCOc1ccc(S(=O)(=O)c2c(C)nn3c(C)cccc23)cc1 [Ex. 48, 3-{4-[3-(di-n-butylamino)propoxy]benzenesulfonyl} 2,7 dimethyl pyrazolo[1,5-]pyridine hydrogen oxalate]",–,"77,1%","85,7%",–,–
"Cc1nn2cccc(C)c2c1S(=O)(=O)c1ccc(OCCCN(C)C2CCCc3ccccc32)cc1 (stereo not drawn) [Ex. 51, 3-{4-[3-(N-methyl N-1,2,3,4-tetrahydronapth-1-ylamino)propoxy]benzenesulfonyl} 2,4-dimethyl pyrazolo[1,5-a]pyridine hydrogen oxalate]",–,"67,1%",85%,–,–
"COc1ccc(CCN(C)CCCOc2ccc([S+]([O-])c3c(C(C)C)c4cccc(C)c4n3C)cc2)cc1OC (stereo not drawn) [Ex. 57, (3-isopropyl 1,7-dimethylindol-2-yl)4-[3-(N-methyl N-3,4-dimethoxy-β-phenethylamino)propoxy]phenyl sulfoxide hydrogen oxalate]","56,9%","76,4%","89,9%",–,–
"COc1ccc(CCN(C)CCCOc2ccc(S(=O)(=O)c3c(C(C)C)c4cc(Cl)ccc4n3C)cc2)cc1OC [Ex. 59, 2-{4-[3-(N-methyl N-3,4-dimethoxy-β-phenethylamino)propoxy]benzenesulfonyl} 5-chloro 3-isopropyl 1-methyl indole]","41,4%","55,4%","68,4%",–,"81,5%"
"COc1ccc2c(c1)c(C(C)C)c(S(=O)(=O)c1ccc(OCCCN(C)CCc3ccc(OC)c(OC)c3)cc1)n2CCCN(C)CCc1ccc(OC)c(OC)c1 [Ex. 63, 2-{4-[3-(N-methyl N-3,4-dimethoxy-β-phenethylamino)propoxy]benzenesulfonyl} 1-[3-(N-methyl N-3,4-dimethoxy-β-phenethylamino)propyl] 3-isopropyl 5-methoxy indole oxalate]","69,7%","82,8%","90,8%",–,–
"CCc1nn2cccc(C)c2c1S(=O)(=O)c1ccc(OCCCN(C)CCc2ccc(OC)c(OC)c2)cc1 [Ex. 78, 3-{4-[3-(N-methyl N-3,4-dimethoxy-β-phenethylamino)propoxy]benezenesulfonyl} 2-ethyl 4-methyl pyrazolo[1,5-a]pyridine hydrogen oxalate]",–,"17,5%","72,9%",–,"78,6%"
"CCc1nn2cc(C)ccc2c1S(=O)(=O)c1ccc(OCCCN(C)CCc2ccc(OC)c(OC)c2)cc1 [Ex. 81, 3-{4-[3-(N-methyl N-3,4-dimethoxy-β-phenethylamino)propoxy]benzenesulfonyl} 2-ethyl 6-methyl pyrazolo[1,5-a]pyridine hydrogen oxalate]",–,"78,1%","85,3%",–,"91,4%"
